Data published in PubChem BioAssay AID1918952 (Molecular Pharmacology Branch, DTP, NCI, 2023).

System: LG0703-F948-PDC complex spheroid viability
Assay: Anticancer human tumor LG0703-F948-PDC patient-derived lung adenocarcinoma cell line growth inhibition
Conditions: for IC50: curve of first compound; for viability, T/C: stronger effect = lower value
Text: Multicellular complex tumor spheroid response to LSD1 Inhibitor Iadademstat in combination with a variety of drugs and investigational agents in selected tumor cell lines
The current study was undertaken to assess response to LSD1 inhibitors in combination with standard-of-care drugs and investigational agents in solid tumor complex spheroid models as well as in the K-562 leukemia. Complex spheroids include a stromal component modeled by human endothelial cells (HUVEC) and fibroblasts modeled by human mesenchymal stem cells (MSCs). The concentration ranges selected for each drug and investigational agent were based upon clinically achievable concentrations if the clinical Cmax of the agent was known.
Compounds. The drugs and investigational agents used in this study are listed on Table 1. All of the agents used, including staurosporine (NSC755774) and gemcitabine (NSC613327), were obtained from the Developmental Therapeutics Program, NCI. FDA-approved anticancer drugs are available from the NCI at http://dtp.nci.nih.gov/branches/dscb/oncology_drugset_explanation.html. Drugs and investigational agents were >95% pure by proton nuclear magnetic resonance (NMR) and liquid chromatography/mass spectrometry (LC/MS). Stock solutions were prepared at 400x in DMSO, stored at -70 degrees C, and diluted in fresh medium prior to their use. The final concentration of DMSO in cell culture wells never exceeded 0.25% (v/v). The FDA-approved anticancer drug set is available from the Developmental Therapeutics Program at https://dtp.cancer.gov/organization/dscb/obtaining/available_plates.htm. All drugs and investigational agents were tested over a range starting from a high concentration at or near the clinical Cmax and decreasing in half-log increments. If the clinical Cmax for an agent had not been determined, the highest concentration tested was 10 microM.
Cell Lines. The patient-derived cancer cell (PDC) lines: 292921-168-R-J2-PDC, K24384-001-R-PDC, and 521955-158-R2-J5-PDC pancreatic carcinomas, 556581-035-R-J1 ovarian carcinoma, 324938-238-R-J1-PDC, 855422-203-R-J1-PDC and 883617-216-R-J1-PDC urothelial bladder carcinomas, 743489-274-T-PDC renal cell carcinoma, 138582-R-J1 Merkel cell tumor, K60290-347-R-J1 and K57222-313-R-J1-PDC glioblastomas, 653999-131-R-J2-PDC, LG0703-F948-PDC, and 349418-098-R-PDC non-small cell lung carcinomas, 885512-296-R-J2-PDC, 171881-019-R-J1-PDC breast carcinomas and 186277-243-T-J2-PDC and 233499-124-R-J2-PDC colon carcinomas were obtained from the NCI Patient-Derived Models Repository (PDMR, https://pdmr.cancer.gov). The established cell lines NCI/ADR-RES (RRID:CVCL_14520 and OVCAR-5 (RRID:CVCL_1628) ovarian carcinomas, 786-O (RRID:CVCL_1051) and A498 (RRID:CVCL_A498) renal cell carcinoma, NCI-H211 (ATCC, cat. CRL-5824; RRID:CVCL_1529), NCI-H196 (ATCC, cat. CRL-5823, RRID:CVCL_1509), SW 1271 (ATCC, cat. CRL-2177, RRID:CVCL_1716) and NCI-H1876 (ATCC, cat. CRL-5902, RRID:CVCL_1503) small cell lung carcinomas, MDA-MB-231 (RRID:CVCL_0062) and MDA-MB-468 (RRID:CVCL_0419)breast carcinomas (10-12). Pooled donor human umbilical vein endothelial cells (HUVEC, Lonza, cat. CC-2519) and human mesenchymal stem cells (hMSC, Lonza, cat. PT-2501) were purchased from Lonza (Walkersville, MD).
Cell Culture. All cells were maintained in an incubator at 37 degrees C and 5% CO2 with 95% humidity. The PDC lines were cultured according to standard operating procedures established by the NCI PDMR (https://pdmr.cancer.gov). Briefly all PDCs were thawed and cultured in Matrigel-coated flasks prepared with a working solution of 1X Ham's F-12 nutrient mix, without supplementation (Invitrogen, Waltham, MA, cat. 11765054), 100 U/mL penicillin-streptomycin (Invitrogen, cat. 15140122), and 2.5% Matrigel (Corning Inc., Corning, NY, cat. 354248) for the first three passages. […]

[1] = second compound 0.1 µM, first compound 0.000949 µM
[2] = second compound 0.1 µM, first compound 0.003 µM
[3] = second compound 0.1 µM, first compound 0.00949 µM
[4] = second compound 0.1 µM, first compound 0.03 µM
[5] = second compound 0.1 µM, first compound 0.0949 µM
[6] = second compound 0.1 µM, first compound 0.3 µM
[7] = second compound 0.316 µM, first compound 0.000949 µM
[8] = second compound 0.316 µM, first compound 0.003 µM
[9] = second compound 0.316 µM, first compound 0.00949 µM
[10] = second compound 0.316 µM, first compound 0.03 µM
[11] = second compound 0.316 µM, first compound 0.0949 µM
[12] = second compound 0.316 µM, first compound 0.3 µM
[13] = second compound 1 µM, first compound 0.000949 µM
[14] = second compound 1 µM, first compound 0.003 µM
[15] = second compound 1 µM, first compound 0.00949 µM
[16] = second compound 1 µM, first compound 0.03 µM
[17] = second compound 1 µM, first compound 0.0949 µM
[18] = second compound 1 µM, first compound 0.3 µM
[19] = second compound 3.16 µM, first compound 0.000949 µM
[20] = second compound 3.16 µM, first compound 0.003 µM
[21] = second compound 3.16 µM, first compound 0.00949 µM
[22] = second compound 3.16 µM, first compound 0.03 µM
[23] = second compound 3.16 µM, first compound 0.0949 µM
[24] = second compound 3.16 µM, first compound 0.3 µM
[25] = second compound 10 µM, first compound 0.000949 µM
[26] = second compound 10 µM, first compound 0.003 µM
[27] = second compound 10 µM, first compound 0.00949 µM
[28] = second compound 10 µM, first compound 0.03 µM
[29] = second compound 10 µM, first compound 0.0949 µM
[30] = second compound 10 µM, first compound 0.3 µM
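Note: spheroids exposed to agents for seven days before readout.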
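Throughout, for viability, T/C: 100% = DMSO vehicle control wells as normalization base.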

Q: With `CCc1c2c(nc3ccc(O)cc13)-c1cc3c(c(=O)n1C2)COC(=O)[C@]3(O)CC` + NC1CC1c1ccc(-c2cccc(O)c2)cc1 as the compound, how does the IC50 (second compound 0.1 µM) read?
A: 1.2 nM

Q: What about the IC50 (second compound 0.316 µM) of the same compound?
A: 1.31 nM

Q: And the IC50 (second compound 1 µM)?
A: 2.33 nM

Q: And the IC50 (second compound 3.16 µM)?
A: 3.09 nM

Q: What about the IC50 (second compound 10 µM) of the same compound?
A: 2.61 nM

Q: And the viability, T/C [1]?
A: 55.8%

Q: And the viability, T/C [2]?
A: 29.2%

Q: And the viability, T/C [3]?
A: 21.3%

Q: What about the viability, T/C [4] of the same compound?
A: 11.7%

Q: And the viability, T/C [5]?
A: 5.98%

Q: What about the viability, T/C [6] of the same compound?
A: 3.08%

Q: What about the viability, T/C [7] of the same compound?
A: 54.8%

Q: And the viability, T/C [8]?
A: 37.7%

Q: What about the viability, T/C [9] of the same compound?
A: 24.2%

Q: What about the viability, T/C [10] of the same compound?
A: 12.6%

Q: What about the viability, T/C [11] of the same compound?
A: 5.51%

Q: And the viability, T/C [12]?
A: 2.54%

Q: What about the viability, T/C [13] of the same compound?
A: 68.2%

Q: What about the viability, T/C [14] of the same compound?
A: 44.7%

Q: And the viability, T/C [15]?
A: 25.4%

Q: And the viability, T/C [16]?
A: 11.7%

Q: What about the viability, T/C [17] of the same compound?
A: 5.78%

Q: And the viability, T/C [18]?
A: 2.05%

Q: And the viability, T/C [19]?
A: 69.9%

Q: And the viability, T/C [20]?
A: 49.7%

Q: And the viability, T/C [21]?
A: 29.8%

Q: And the viability, T/C [22]?
A: 12.2%

Q: What about the viability, T/C [23] of the same compound?
A: 2.96%

Q: What about the viability, T/C [24] of the same compound?
A: 1.53%

Q: What about the viability, T/C [25] of the same compound?
A: 68.4%

Q: What about the viability, T/C [26] of the same compound?
A: 47.3%

Q: What about the viability, T/C [27] of the same compound?
A: 23.1%

Q: And the viability, T/C [28]?
A: 8%

Q: What about the viability, T/C [29] of the same compound?
A: 1.01%

Q: What about the viability, T/C [30] of the same compound?
A: 0.49%

Q: How did the IC50 (second compound 0.1 µM) turn out when `Nc1ccn(C2OC(CO)C(O)C2(F)F)c(=O)n1` (stereo not given) + NC1CC1c1ccc(-c2cccc(O)c2)cc1 was run?
A: 12.6 nM

Q: And the IC50 (second compound 0.316 µM)?
A: 74.2 nM

Q: And the IC50 (second compound 1 µM)?
A: 100 nM

Q: And the IC50 (second compound 3.16 µM)?
A: 145 nM

Q: And the IC50 (second compound 10 µM)?
A: > 300 nM

Q: And the viability, T/C [1]?
A: 79%

Q: What about the viability, T/C [2] of the same compound?
A: 50.8%

Q: What about the viability, T/C [3] of the same compound?
A: 51.9%

Q: What about the viability, T/C [4] of the same compound?
A: 56.6%

Q: And the viability, T/C [5]?
A: 43.9%

Q: What about the viability, T/C [6] of the same compound?
A: 32.3%

Q: What about the viability, T/C [7] of the same compound?
A: 70.2%

Q: And the viability, T/C [8]?
A: 63.9%

Q: And the viability, T/C [9]?
A: 66.8%

Q: What about the viability, T/C [10] of the same compound?
A: 54%

Q: What about the viability, T/C [11] of the same compound?
A: 48.9%

Q: And the viability, T/C [12]?
A: 37.6%

Q: And the viability, T/C [13]?
A: 76.9%

Q: And the viability, T/C [14]?
A: 66.5%

Q: And the viability, T/C [15]?
A: 63.6%

Q: What about the viability, T/C [16] of the same compound?
A: 60.1%

Q: What about the viability, T/C [17] of the same compound?
A: 51.9%

Q: What about the viability, T/C [18] of the same compound?
A: 40.3%

Q: What about the viability, T/C [19] of the same compound?
A: 81.5%

Q: And the viability, T/C [20]?
A: 80.6%

Q: And the viability, T/C [21]?
A: 87.3%

Q: What about the viability, T/C [22] of the same compound?
A: 66%

Q: And the viability, T/C [23]?
A: 57.1%

Q: What about the viability, T/C [24] of the same compound?
A: 41.4%

Q: What about the viability, T/C [25] of the same compound?
A: 87%

Q: What about the viability, T/C [26] of the same compound?
A: 78.3%

Q: What about the viability, T/C [27] of the same compound?
A: 83.9%

Q: What about the viability, T/C [28] of the same compound?
A: 68.9%

Q: And the viability, T/C [29]?
A: 59%

Q: What about the viability, T/C [30] of the same compound?
A: 51.5%

Q: Which results are given for `O=C(c1cc(Cc2n[nH]c(=O)c3ccccc23)ccc1F)N1CCN(C(=O)C2CC2)CC1` + NC1CC1c1ccc(-c2cccc(O)c2)cc1?
A: IC50 (second compound 0.1 µM): > 10000 nM; IC50 (second compound 0.316 µM): > 10000 nM; IC50 (second compound 1 µM): > 10000 nM; IC50 (second compound 3.16 µM): > 10000 nM; IC50 (second compound 10 µM): > 10000 nM; viability, T/C (second compound 0.1 µM, first compound 0.0316 µM): 112%; viability, T/C (second compound 0.1 µM, first compound 0.1 µM): 121%; viability, T/C (second compound 0.1 µM, first compound 0.316 µM): 114%; viability, T/C (second compound 0.1 µM, first compound 1 µM): 107%; viability, T/C (second compound 0.1 µM, first compound 3.16 µM): 92.6%; viability, T/C (second compound 0.1 µM, first compound 10 µM): 98.6%; viability, T/C (second compound 0.316 µM, first compound 0.0316 µM): 109%; viability, T/C (second compound 0.316 µM, first compound 0.1 µM): 111%; viability, T/C (second compound 0.316 µM, first compound 0.316 µM): 124%; viability, T/C (second compound 0.316 µM, first compound 1 µM): 99%; viability, T/C (second compound 0.316 µM, first compound 3.16 µM): 95.2%; viability, T/C (second compound 0.316 µM, first compound 10 µM): 79.5%; viability, T/C (second compound 1 µM, first compound 0.0316 µM): 102%; viability, T/C (second compound 1 µM, first compound 0.1 µM): 121%; viability, T/C (second compound 1 µM, first compound 0.316 µM): 134%; viability, T/C (second compound 1 µM, first compound 1 µM): 102%; viability, T/C (second compound 1 µM, first compound 3.16 µM): 92.1%; viability, T/C (second compound 1 µM, first compound 10 µM): 86%; viability, T/C (second compound 3.16 µM, first compound 0.0316 µM): 114%; viability, T/C (second compound 3.16 µM, first compound 0.1 µM): 107%; viability, T/C (second compound 3.16 µM, first compound 0.316 µM): 122%; viability, T/C (second compound 3.16 µM, first compound 1 µM): 102%; viability, T/C (second compound 3.16 µM, first compound 3.16 µM): 106%; viability, T/C (second compound 3.16 µM, first compound 10 µM): 127%; viability, T/C (second compound 10 µM, first compound 0.0316 µM): 111%; viability, T/C (second compound 10 µM, first compound 0.1 µM): 94.3%; viability, T/C (second compound 10 µM, first compound 0.316 µM): 110%; viability, T/C (second compound 10 µM, first compound 1 µM): 107%; viability, T/C (second compound 10 µM, first compound 3.16 µM): 106%; viability, T/C (second compound 10 µM, first compound 10 µM): 91.8%
